Experimental data from patent publication US20090162329A1, “COMPOSITIONS COMPRISING HDAC INHIBITORS AND METHODS OF THEIR USE IN RESTORING STEM CELL FUNCTION AND PREVENTING HEART FAILURE” (priority 2007, published 2009).
“Also recorded” adds a separate entry of the source.

Experiments:
[1] = system: DNA methyltransferases; conditions: ECs and non-EC types; cited from earlier work
[2] = system: ESCs; assay: Effect of HDAC inhibitors on ESC differentiation after LIF removal (FIG. 23); format: cell-based, mouse; conditions: following LIF removal
Description: FIG. 23. Effect of HDAC inhibitors on ESC differentiation. […] DAPI, blue.

[3] = system: histone H3; assay: Histone H3 methylation in ESCs by Western blotting (FIG. 15); format: cell-based; conditions: mouse ESCs, loading by histone H1
Description: FIG. 15. Histone methylation in VPCs, MPCs and ESCs. A: H3K79me2 is present in MPCs and absent in VPCs. B: Shear stress (SS) induces a 4-5-fold increase in H3K79me2 in mouse ESCs. […] Equal loading is determined on the basis of histone H1.
Western blotting. Genome-wide methylation and acetylation of histone 3 and histone 4 are analyzed. Protein lysates are obtained with Laemmli buffer containing β-mercaptoethanol. Proteins are separated on 15% SDS-PAGE, transferred onto nitrocellulose and exposed to specific antibodies against different histone modifications (H3K9me2/3, H3K27me3, H3K4me2/3, H3K79me3, H4K20me2, H4K5Ac, H4K8Ac, H4K12Ac, H4K16Ac, H3K9Ac, H3K14Ac). Loading conditions are determined by β-actin expression (6, 7, 58, 59). In a similar manner, HDAC expression is quantified in total cell lysates and in nuclear and cytoplasmic lysates (249, 250).

[4] = system: HDAC; conditions: mouse ESCs, nuclear HDAC activity
Description: E: The activity of HDAC was measured by employing acetylated H4 as substrate.

[5] = system: class I and II HDAC; conditions: cited from earlier work
[6] = system: myocardial hypertrophy; conditions: following pressure overload; cited from earlier work

Nc1ncn([C@@H]2O[C@H](CO)[C@@H](O)[C@H]2O)c(=O)n1 [5-azacytidine]
eNOS mRNA [1]: induces the upregulation of eNOS mRNA

Cn1c(/C=C/C(=O)NO)ccc1/C=C/C(=O)c1cccc(F)c1 [MC1568]
differentiation of ESCs into cardiovascular lineages / cardiac cell phenotypes (flk1, CD31, SM22, α-SA) [2]: inhibits the cardiac commitment of ESCs | neuronal differentiation of ESCs (nestin expression) [2]: favors neuronal differentiation; also recorded: selective expression of nestin

Nc1ccccc1NC(=O)c1ccc(CNC(=O)OCc2cccnc2)cc1 [MS27-275]
differentiation of ESCs into cardiovascular lineages / cardiac cell phenotypes (flk1, CD31, SM22, α-SA) [2]: triggers differentiation of ESCs to cardiac cell phenotypes; also recorded: promotes the preferential differentiation of ESCs into cardiovascular lineages | neuronal differentiation of ESCs (nestin expression) [2]: opposes neuronal commitment

CC(/C=C/C(=O)NO)=C\[C@@H](C)C(=O)c1ccc(N(C)C)cc1 [Trichostatin A]
overall methylation level of histone H3 [3]: reduces the overall methylation level of histone H3 | neuronal differentiation of ESCs (nestin expression) [2]: selective expression of nestin | increase of HDAC activity early after LIF depletion [4]: inhibited | cell cycle arrest and differentiation [5]: induces cell cycle arrest and differentiation | myocardial hypertrophy [6]: blunts myocardial hypertrophy
